The assay deals with Myo5 SH3 domain. The assay can be described thus: SPOT analysis of cellulose-bound peptides (WISE), Myo5 SH3 domain (Dataset S4). The following applies: for The normalized value in BLU units: Myo5 SH3 domain. It counts as binding, Saccharomyces cerevisiae.
Where [1] appears, read: SPOT analysis of membrane-bound peptides, normalized value (see methods).
Where [2] appears, read: SPOT analysis of membrane-synthesized peptides probed with Myo5 SH3 domain, normalized value.
[3] abbreviates: SPOT analysis of cellulose-bound peptides probed with Myo5 SH3 domain, normalized value.
[4] abbreviates: SPOT analysis of cellulose-bound 14-mer yeast proteome peptides, normalized value, mean where the peptide was synthesized more than once.

PESAKCNPNSPRLK: the “The normalized value in BLU units” value under setting [1] came out at 253.0 BLU.

As for KHEPKKSPTTPALA, the “The normalized value in BLU units (SPOT analysis, Myo5 SH3)” value under setting [2] is 726.2 BLU.

For NQIARQIPFQPWYL, the “The normalized value in BLU units” value under setting [1] is listed as 247.7 BLU.

Regarding IARPLSVPGSPKVR, under setting [3], the “The normalized value in BLU units (SPOT analysis, Myo5 SH3)” value is given as 382.9 BLU.

As to KTGRKTFPFLPYQI, the “The normalized value in BLU units” value under setting [1] was determined as 466.0 BLU.

AELMLRIPYLPGQN: the “The normalized value in BLU units (SPOT analysis, Myo5 SH3)” value under setting [3] amounted to 236.4 BLU.

Consider GWSTYIPPFNPLEI, for which the “The normalized value in BLU units” value under setting [4] is listed as 113.7 BLU.

As to RIRDKSKPSSPTAT, the “The normalized value in BLU units (SPOT analysis, Myo5 SH3)” value under setting [2] worked out at 546.8 BLU.

For GLIGMNDPPRPNVK, under setting [4], the “The normalized value in BLU units” value was found to be 115.5 BLU.

PFLIKFTPKFPQSI: under setting [2], the “The normalized value in BLU units (SPOT analysis, Myo5 SH3)” value came to 974.5 BLU.

RRRTRLRPPTPLSQ: the “The normalized value in BLU units” value under setting [1] worked out at 1508.6 BLU.

With NTLLKVVPQEPTAV, the “The normalized value in BLU units (SPOT analysis, Myo5 SH3)” value under setting [2] is recorded as 154.4 BLU.

Take REYIKSLPMYPAAP: the “The normalized value in BLU units (SPOT analysis, Myo5 SH3)” value under setting [2] is on record as 70.4 BLU.

For GPIIHPGPEPPRYD, the “The normalized value in BLU units” value under setting [4] was 205.1 BLU.

On to KNLKKYDPEDPNRR, for which the “The normalized value in BLU units” value under setting [1] is reported as 207.1 BLU.

On to HICDKMNPASPQYF, for which the “The normalized value in BLU units” value under setting [1] was determined as 159.1 BLU.

Regarding YTYSRNEPVIPTKP, under setting [2], the “The normalized value in BLU units (SPOT analysis, Myo5 SH3)” value is listed as 209.5 BLU.

With ILHQLGAPSIPENL, the “The normalized value in BLU units (SPOT analysis, Myo5 SH3)” value under setting [3] stood at 174.0 BLU.

For the sequence FYDFRSLPKVPTTQ, the “The normalized value in BLU units” value under setting [1] is on record as 336.7 BLU.

For SPRCLPTPILPSMS, under setting [3], the “The normalized value in BLU units (SPOT analysis, Myo5 SH3)” value is on record as 192.8 BLU.

Turning to YVYGRQDPKKPFFT, the “The normalized value in BLU units (SPOT analysis, Myo5 SH3)” value under setting [2] is 345.2 BLU.

Regarding SWAVLPVPGGPVMY, the “The normalized value in BLU units” value under setting [4] worked out at 69.2 BLU.

In the case of TSCTKEKPTPPTTT, the “The normalized value in BLU units” value under setting [4] is on record as 118.4 BLU.

In the case of LGSEKSCPLAPAVA, the “The normalized value in BLU units (SPOT analysis, Myo5 SH3)” value under setting [2] is reported as 121.9 BLU.

Consider KPAGRPIPPAPTHY, for which the “The normalized value in BLU units (SPOT analysis, Myo5 SH3)” value under setting [2] is reported as 189.4 BLU.

Turning to LPAPPPPPRRGPA, the “The normalized value in BLU units (SPOT analysis, Myo5 SH3)” value under setting [3] came out at 43350 BLU.

Consider HAVLLNPPVAPTAE, for which, under setting [3], the “The normalized value in BLU units (SPOT analysis, Myo5 SH3)” value was determined as 227.5 BLU.

Consider PTANKYAPVSPTVQ, for which, under setting [1], the “The normalized value in BLU units” value is listed as 191.4 BLU.

As to ALGFYRAPGSPAPA, the “The normalized value in BLU units (SPOT analysis, Myo5 SH3)” value under setting [3] is recorded as 100.8 BLU.

For LLYLMTYPQQPMVK, the “The normalized value in BLU units” value under setting [4] is 161.7 BLU.

Regarding DFIKLMNPTLPSLK, the “The normalized value in BLU units” value under setting [4] was 151.5 BLU.

For the sequence TKTDKSYPMCPVDA, the “The normalized value in BLU units (SPOT analysis, Myo5 SH3)” value under setting [2] is reported as 150.0 BLU.

Turning to HLVVWNPPILPQHE, the “The normalized value in BLU units” value under setting [4] came to 117.9 BLU.

In the case of KKIAKGDPKIPMQN, the “The normalized value in BLU units” value under setting [1] was determined as 720.5 BLU.

As for ETSLRVLPIAPKIF, the “The normalized value in BLU units” value under setting [4] is 548.0 BLU.

As to FLQDRVIPIFPHYP, under setting [2], the “The normalized value in BLU units (SPOT analysis, Myo5 SH3)” value amounted to 260.9 BLU.

Take KLAPLNCPSLPTTN: the “The normalized value in BLU units” value under setting [4] was 211.6 BLU.

For SFIRKRAPTPPAPS, under setting [2], the “The normalized value in BLU units (SPOT analysis, Myo5 SH3)” value came out at 878.2 BLU.

With LPTALLSPLRPSLC, the “The normalized value in BLU units” value under setting [4] amounted to 115.0 BLU.

On to LDKGKHVPSKPVSN, for which the “The normalized value in BLU units” value under setting [1] amounted to 200.9 BLU.

For YVVKKNFPVSPNYT, under setting [1], the “The normalized value in BLU units” value is 193.9 BLU.

WSQMRMNPTNPDWI: under setting [2], the “The normalized value in BLU units (SPOT analysis, Myo5 SH3)” value is 81.2 BLU.

In the case of NLLSLENPVVPSHY, the “The normalized value in BLU units (SPOT analysis, Myo5 SH3)” value under setting [3] was 75.6 BLU.

PTVQKFSPHPPTTL: under setting [1], the “The normalized value in BLU units” value was 213.4 BLU.

Turning to FKVYRWNPDEPSAK, the “The normalized value in BLU units (SPOT analysis, Myo5 SH3)” value under setting [2] amounted to 99.0 BLU.

On to SNFKKRDPGLPDFQ, for which, under setting [2], the “The normalized value in BLU units (SPOT analysis, Myo5 SH3)” value is 160.6 BLU.

For the sequence KKHDKLHPNYPSVK, the “The normalized value in BLU units (SPOT analysis, Myo5 SH3)” value under setting [2] is 406.8 BLU.

On to NKIPKHLPADPIFS, for which the “The normalized value in BLU units” value under setting [4] was determined as 277.9 BLU.

As for YPAKLRIPETPVKK, the “The normalized value in BLU units” value under setting [4] was 219.9 BLU.

Regarding DLIHLDCPQQPNGY, under setting [4], the “The normalized value in BLU units” value turned out to be 219.5 BLU.

Regarding ILEGKFEPVIPREW, the “The normalized value in BLU units” value under setting [1] stood at 93.2 BLU.

In the case of FFYRRDIPDVPITT, under setting [4], the “The normalized value in BLU units” value amounted to 138.0 BLU.

On to GLNLKWEPSTPQRN, for which the “The normalized value in BLU units” value under setting [1] amounted to 104.8 BLU.

Turning to VNTPRSVPNSPNDG, the “The normalized value in BLU units” value under setting [1] is 65.0 BLU.

Regarding AAMNLETPSNPDSA, the “The normalized value in BLU units” value under setting [4] worked out at 84.9 BLU.

As for NGMPRRIPDYPDAF, the “The normalized value in BLU units (SPOT analysis, Myo5 SH3)” value under setting [2] was 223.3 BLU.

In the case of NEGDLYPPEQPGVD, the “The normalized value in BLU units (SPOT analysis, Myo5 SH3)” value under setting [3] is listed as 80.1 BLU.

In the case of NLAPFTQPDFPFQT, under setting [4], the “The normalized value in BLU units” value turned out to be 81.4 BLU.

Consider AVVYKLKPYIPSLS, for which the “The normalized value in BLU units” value under setting [1] is listed as 112.0 BLU.

Take QFSPMDDPKSPTPM: the “The normalized value in BLU units (SPOT analysis, Myo5 SH3)” value under setting [3] worked out at 121.0 BLU.

As for KAVHLYFPILPHCG, under setting [4], the “The normalized value in BLU units” value came out at 125.3 BLU.
